# Values quoted from earlier work in patent US20050220810A1, “Anti-aging preparation” (Shiseido Company, Ltd., priority 2002, published 2005).
# Test system: vascular endothelial cell HMVEC
# Conditions: general statement on positive controls of TSP-1 induction; no test described
substance,measurement,value
"bFGF: fibroblast growth factor, a positive control of the TSP-1 inducing substance",induction of cell death in vascular endothelial cells,does not induce cell death
